# Reference: ChEMBL document CHEMBL1201862, “PubChem BioAssay data set” (2004)
# Active and inactive are the calls of the source.
# What was measured:
# [1] = target: FAD-linked sulfhydryl oxidase ALR (Homo sapiens, UniProt P55789); assay: inhibitors of human ALR sulfhydryl oxidase, dose response, biochemical, H2O2 detection, luminescence, cherry-pick (AID 493248)
# [2] = target: T1, RNA-editing ligase 1, mitochondrial (Trypanosoma brucei brucei, UniProt P86926); assay: TbREL1 ligase inhibitors, dose response, biochemical, fluorescence, Trypanosoma brucei (AID 1117295); type: functional
# T1 sequence (P86926 whole entry): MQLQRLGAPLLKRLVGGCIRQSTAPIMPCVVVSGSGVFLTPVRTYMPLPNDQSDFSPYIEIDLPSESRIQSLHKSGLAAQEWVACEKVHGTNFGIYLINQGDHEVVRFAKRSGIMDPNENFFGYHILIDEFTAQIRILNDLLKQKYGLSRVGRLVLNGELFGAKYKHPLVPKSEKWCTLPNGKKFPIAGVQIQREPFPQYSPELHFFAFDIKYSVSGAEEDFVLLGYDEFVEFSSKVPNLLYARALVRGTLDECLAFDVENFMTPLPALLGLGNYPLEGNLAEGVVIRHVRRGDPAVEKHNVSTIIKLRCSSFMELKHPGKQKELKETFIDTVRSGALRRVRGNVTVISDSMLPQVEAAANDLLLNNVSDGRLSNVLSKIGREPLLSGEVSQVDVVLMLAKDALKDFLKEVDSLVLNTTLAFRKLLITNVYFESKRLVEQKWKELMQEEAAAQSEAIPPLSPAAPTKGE
# Aminopeptidase N = target: T2, Aminopeptidase N (Plasmodium falciparum FcB1/Columbia, UniProt O96935); assay: P. falciparum M1AAP inhibitors, biochemical, fluorogenic H-Leu-NHMec substrate, 1536-well (AID 1445); design: species or system Plasmodium falciparum 3D7, 3D7
# T2 sequence (O96935 whole entry): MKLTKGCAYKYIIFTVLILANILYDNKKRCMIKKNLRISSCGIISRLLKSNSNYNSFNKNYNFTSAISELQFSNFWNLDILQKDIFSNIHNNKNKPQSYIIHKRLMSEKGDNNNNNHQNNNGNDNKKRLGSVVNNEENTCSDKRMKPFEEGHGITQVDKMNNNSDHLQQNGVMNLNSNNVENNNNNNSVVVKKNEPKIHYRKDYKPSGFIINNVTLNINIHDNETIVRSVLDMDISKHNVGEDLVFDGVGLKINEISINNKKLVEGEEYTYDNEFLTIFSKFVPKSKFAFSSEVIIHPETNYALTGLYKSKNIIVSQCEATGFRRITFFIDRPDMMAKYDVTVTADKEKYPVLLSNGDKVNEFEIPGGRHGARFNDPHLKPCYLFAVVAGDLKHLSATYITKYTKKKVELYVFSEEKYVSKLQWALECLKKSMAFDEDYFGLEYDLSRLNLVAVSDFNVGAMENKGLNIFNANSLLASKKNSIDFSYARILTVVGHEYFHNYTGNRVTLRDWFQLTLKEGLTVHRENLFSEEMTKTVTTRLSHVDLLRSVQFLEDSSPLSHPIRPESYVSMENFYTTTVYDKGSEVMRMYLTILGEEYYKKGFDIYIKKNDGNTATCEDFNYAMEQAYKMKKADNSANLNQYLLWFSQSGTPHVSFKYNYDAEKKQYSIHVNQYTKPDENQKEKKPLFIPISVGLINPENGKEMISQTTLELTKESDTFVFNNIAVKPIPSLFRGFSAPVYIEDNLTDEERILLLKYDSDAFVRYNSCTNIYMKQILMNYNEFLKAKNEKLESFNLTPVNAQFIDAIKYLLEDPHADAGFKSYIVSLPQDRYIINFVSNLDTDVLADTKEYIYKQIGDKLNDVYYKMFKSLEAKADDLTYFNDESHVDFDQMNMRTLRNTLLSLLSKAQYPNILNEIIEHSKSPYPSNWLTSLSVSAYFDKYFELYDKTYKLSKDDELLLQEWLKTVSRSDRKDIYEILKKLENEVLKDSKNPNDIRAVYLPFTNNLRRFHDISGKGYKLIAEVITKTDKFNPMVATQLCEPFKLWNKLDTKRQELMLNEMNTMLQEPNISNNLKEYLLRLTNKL
# [3] = inhibitors of Vif binding to APOBEC3G peptide, primary screen, biochemical, TR-FRET, GST-Vif 1-94, biotin-A3G peptide, dose response retest (AID 1117319); type: functional;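 note: TR-FRET signal of purified GST-Vif binding a biotinylated A3G peptide; inhibitors lower the FRET signal by blocking Vif and A3G binding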
# [4] = target: T3, Heat shock factor protein 1 (Mus musculus, UniProt P38532); assay: HSF1 potentiators in luciferase reporter cells, confirmation, cell-based, NIH3T3, luminescence, dose retest (AID 435004); type: functional;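 note: stress induced by proteasome inhibitor MG132 added 30 min after compound; luciferase reporter driven by HSF1 response element in NIH3T3 cells; actives raise luminescence as potentiators of the MG132 stress response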
# T3 sequence (P38532 whole entry): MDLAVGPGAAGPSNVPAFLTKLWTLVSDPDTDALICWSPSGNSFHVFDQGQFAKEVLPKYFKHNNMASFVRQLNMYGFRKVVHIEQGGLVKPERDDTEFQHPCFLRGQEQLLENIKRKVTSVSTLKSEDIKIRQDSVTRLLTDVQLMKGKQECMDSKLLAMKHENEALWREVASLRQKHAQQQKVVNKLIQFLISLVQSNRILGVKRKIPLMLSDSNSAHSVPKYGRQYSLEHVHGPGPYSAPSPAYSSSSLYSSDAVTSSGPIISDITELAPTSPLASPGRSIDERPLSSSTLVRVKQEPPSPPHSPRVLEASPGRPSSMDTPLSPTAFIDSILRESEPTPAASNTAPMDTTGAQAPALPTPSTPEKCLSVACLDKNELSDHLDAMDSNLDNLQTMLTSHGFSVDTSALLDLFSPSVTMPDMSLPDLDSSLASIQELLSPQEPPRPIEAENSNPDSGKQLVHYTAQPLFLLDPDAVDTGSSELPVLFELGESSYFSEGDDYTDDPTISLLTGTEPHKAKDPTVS
# [5] = Counterscreen for activators of the function of SWI/SNF related, matrix associated, actin dependent regulator of chromatin, subfamily a, member 2 (SMARCA2, BRM): Luminescence-based cell-based high throughput dose response assay to identify non-selective compounds using the VP16 reporter assay.; type: functional
# [6] = target: SWI/SNF-related matrix-associated actin-dependent regulator of chromatin subfamily A member 2 (Homo sapiens, UniProt P51531); assay: Luminescence-based cell-based high throughput dose response assay to identify activators of the function of SWI/SNF related, matrix associated, actin dependent regulator of chromatin, subfamily a, member 2 (SMARCA2, BRM).; type: functional
# SWI/SNF-related matrix-associated actin-dependent regulator of chromatin subfamily A member 2, sequence (P51531 whole entry): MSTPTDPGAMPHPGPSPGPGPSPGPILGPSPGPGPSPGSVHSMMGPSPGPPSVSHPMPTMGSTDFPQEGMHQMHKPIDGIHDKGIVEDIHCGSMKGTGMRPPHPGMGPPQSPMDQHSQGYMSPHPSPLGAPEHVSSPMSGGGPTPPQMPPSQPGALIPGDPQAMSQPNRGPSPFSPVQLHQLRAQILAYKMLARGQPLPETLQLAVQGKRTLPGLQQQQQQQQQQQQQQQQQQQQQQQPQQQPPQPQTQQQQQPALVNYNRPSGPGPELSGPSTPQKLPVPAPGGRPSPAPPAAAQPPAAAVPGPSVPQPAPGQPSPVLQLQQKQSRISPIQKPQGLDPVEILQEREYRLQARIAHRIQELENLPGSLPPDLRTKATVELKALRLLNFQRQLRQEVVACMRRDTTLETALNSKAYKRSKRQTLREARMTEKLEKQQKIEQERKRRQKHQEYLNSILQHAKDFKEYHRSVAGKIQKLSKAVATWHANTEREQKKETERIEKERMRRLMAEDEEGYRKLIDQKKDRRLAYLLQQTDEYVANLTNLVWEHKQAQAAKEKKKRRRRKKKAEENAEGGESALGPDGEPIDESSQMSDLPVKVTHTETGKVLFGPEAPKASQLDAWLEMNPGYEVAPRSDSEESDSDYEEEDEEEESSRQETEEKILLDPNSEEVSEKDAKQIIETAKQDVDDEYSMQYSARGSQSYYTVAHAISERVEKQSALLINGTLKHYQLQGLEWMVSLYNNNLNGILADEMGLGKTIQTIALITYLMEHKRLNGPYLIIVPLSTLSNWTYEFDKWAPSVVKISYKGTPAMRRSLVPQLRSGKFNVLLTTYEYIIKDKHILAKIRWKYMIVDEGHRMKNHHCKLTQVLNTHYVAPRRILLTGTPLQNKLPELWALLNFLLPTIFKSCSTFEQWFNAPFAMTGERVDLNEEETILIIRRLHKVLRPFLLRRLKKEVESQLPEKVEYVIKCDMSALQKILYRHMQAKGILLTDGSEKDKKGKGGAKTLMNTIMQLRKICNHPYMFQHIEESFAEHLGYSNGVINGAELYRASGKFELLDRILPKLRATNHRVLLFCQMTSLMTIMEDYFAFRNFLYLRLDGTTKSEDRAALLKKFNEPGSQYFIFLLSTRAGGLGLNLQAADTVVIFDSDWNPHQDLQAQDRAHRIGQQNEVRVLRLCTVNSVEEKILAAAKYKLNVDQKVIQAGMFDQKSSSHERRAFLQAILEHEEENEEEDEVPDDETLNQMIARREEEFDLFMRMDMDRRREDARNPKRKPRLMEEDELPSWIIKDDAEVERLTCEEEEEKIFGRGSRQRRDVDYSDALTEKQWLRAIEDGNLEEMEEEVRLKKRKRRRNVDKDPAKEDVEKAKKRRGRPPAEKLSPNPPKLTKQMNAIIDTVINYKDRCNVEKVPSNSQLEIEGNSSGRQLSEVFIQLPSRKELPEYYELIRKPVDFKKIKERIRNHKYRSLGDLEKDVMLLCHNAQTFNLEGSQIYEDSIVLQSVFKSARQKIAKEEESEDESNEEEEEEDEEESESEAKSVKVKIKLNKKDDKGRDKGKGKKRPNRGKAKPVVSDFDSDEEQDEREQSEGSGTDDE
# HEK293 = assay: HEK293T cell cytotoxicity, dose response, cytotoxicity control, ATP luminescence, cherry-pick samples (AID 687005); type: functional, cell-based; conditions: Homo sapiens;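 note: cells exposed to compound for 48 hours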
# [7] = HEK293 Cytotoxicity Assay Measured in Cell-Based System Using Plate Reader - 7071-01_Inhibitor_Dose_CherryPick_Activity_Set2.; type: functional
# [8] = Shn3 3'UTR reporter inhibitors, dose response, cell-based, Clone20 osteoblasts, firefly luciferase, cherry-picked (AID 624132); type: functional;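 note: firefly luciferase luminescence from reporter carrying the Shn3 3'UTR in osteoblasts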
# [9] = HepG2 cell cytotoxicity, dose response, cytotoxicity control, plate reader, cherry-pick, antagonist series (AID 743416); type: functional, cell-based
# [10] = HepG2 cell cytotoxicity, dose response, cytotoxicity control for Shn3 inhibitor project, CellTiter-Glo, cherry-picked (AID 624134); type: functional, cell-based
# [11] = HEK293 cell cytotoxicity, dose response, cytotoxicity control, plate reader, cherry-picked samples (AID 743446); type: functional, cell-based
# [12] = A549 cell cytotoxicity, dose response, cytotoxicity control, plate reader, cherry-pick, antagonist series (AID 743412); type: functional, cell-based
# [13] = MC4R antagonists, dose response, counter-screen for LGR2 antagonist project, cell-based, plate reader, cherry pick (AID 743444); type: functional;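 note: transfected HEK 293 cells stimulated with alpha-MSH peptide; potency of inhibitors of the alpha-MSH evoked signal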
# [14] = LGR2 antagonists, dose response, cell-based, HEK293, CRE-luciferase reporter, cherry pick, set 2 (AID 743343); type: functional;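 note: transfected cells were stimulated with diluted bursicon conditioned medium after compound addition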
# [15] = control 3'UTR Renilla luciferase suppression, dose response, counter-screen for Shn3 inhibitor project, cell-based, Clone20-Shn3RL, cherry-picked (AID 624133); type: functional
# [16] = target: Ras and Rab interactor 1/Tyrosine-protein kinase ABL1 (Homo sapiens, UniProt P00519+Q13671); type: functional;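 note: biochemical TR-FRET dose-response test measuring inhibition of binding between Rin1 and Abl proteins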
# Ras and Rab interactor 1/Tyrosine-protein kinase ABL1, sequence (P00519 whole entry): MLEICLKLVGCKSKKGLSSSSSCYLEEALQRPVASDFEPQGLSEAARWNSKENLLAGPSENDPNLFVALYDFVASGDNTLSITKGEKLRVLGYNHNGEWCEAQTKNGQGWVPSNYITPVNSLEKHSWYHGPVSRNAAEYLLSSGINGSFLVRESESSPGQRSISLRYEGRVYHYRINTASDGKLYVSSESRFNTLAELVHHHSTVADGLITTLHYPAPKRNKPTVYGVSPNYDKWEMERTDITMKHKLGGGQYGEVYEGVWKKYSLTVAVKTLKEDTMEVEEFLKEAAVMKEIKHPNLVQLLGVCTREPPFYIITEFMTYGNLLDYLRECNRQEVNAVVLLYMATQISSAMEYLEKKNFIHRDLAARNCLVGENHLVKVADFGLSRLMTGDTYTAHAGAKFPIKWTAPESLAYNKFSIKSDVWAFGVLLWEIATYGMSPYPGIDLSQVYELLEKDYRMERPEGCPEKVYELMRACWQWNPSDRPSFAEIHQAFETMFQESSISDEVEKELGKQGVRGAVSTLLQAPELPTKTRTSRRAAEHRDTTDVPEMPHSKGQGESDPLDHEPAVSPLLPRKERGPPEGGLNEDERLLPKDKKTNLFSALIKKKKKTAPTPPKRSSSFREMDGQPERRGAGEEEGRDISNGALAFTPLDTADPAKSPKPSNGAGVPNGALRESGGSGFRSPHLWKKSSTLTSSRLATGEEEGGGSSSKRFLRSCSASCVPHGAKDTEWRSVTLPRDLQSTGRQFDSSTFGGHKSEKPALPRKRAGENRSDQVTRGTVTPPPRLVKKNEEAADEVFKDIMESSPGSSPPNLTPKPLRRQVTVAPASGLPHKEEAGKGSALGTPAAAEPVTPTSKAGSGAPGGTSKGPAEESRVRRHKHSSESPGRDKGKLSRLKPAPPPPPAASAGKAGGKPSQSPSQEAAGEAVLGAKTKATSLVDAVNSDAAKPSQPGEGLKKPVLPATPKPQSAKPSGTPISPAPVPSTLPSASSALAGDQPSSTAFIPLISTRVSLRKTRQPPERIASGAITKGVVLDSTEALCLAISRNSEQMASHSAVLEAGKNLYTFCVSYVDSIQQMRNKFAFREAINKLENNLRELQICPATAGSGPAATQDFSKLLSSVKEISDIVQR
# Ras and Rab interactor 1/Tyrosine-protein kinase ABL1, sequence (Q13671 whole entry): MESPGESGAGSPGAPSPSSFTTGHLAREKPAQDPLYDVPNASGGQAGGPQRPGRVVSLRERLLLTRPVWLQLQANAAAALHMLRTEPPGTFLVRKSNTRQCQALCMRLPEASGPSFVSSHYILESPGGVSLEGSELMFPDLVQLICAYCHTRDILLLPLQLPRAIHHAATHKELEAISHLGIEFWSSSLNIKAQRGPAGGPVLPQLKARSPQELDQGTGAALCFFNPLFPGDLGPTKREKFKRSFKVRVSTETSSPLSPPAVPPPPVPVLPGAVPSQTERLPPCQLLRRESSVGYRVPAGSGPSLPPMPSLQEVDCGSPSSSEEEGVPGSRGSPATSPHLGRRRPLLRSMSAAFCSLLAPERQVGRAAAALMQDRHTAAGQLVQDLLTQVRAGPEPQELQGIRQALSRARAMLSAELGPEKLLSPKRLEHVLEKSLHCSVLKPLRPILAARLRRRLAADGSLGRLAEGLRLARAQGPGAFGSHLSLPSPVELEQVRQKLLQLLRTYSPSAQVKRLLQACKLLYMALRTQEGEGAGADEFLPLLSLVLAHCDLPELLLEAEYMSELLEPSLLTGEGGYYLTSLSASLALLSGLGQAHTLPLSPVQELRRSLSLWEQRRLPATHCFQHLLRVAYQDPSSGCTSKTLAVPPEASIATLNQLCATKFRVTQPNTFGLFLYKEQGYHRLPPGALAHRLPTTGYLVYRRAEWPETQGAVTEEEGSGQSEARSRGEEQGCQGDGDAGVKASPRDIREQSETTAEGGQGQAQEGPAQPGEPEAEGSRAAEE
# Paired box protein Pax-8 = Paired box protein Pax-8 (Homo sapiens, UniProt Q06710); assay: inhibitors of PAX8-driven TPO luciferase reporter, dose response, RMG-I cells, cherry-pick (AID 687027); type: functional, cell-based;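 note: luciferase reporter driven by Pax8 target thyroperoxidase promoter measured by SteadyGlo luminescence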
# Paired box protein Pax-8, sequence (Q06710 whole entry): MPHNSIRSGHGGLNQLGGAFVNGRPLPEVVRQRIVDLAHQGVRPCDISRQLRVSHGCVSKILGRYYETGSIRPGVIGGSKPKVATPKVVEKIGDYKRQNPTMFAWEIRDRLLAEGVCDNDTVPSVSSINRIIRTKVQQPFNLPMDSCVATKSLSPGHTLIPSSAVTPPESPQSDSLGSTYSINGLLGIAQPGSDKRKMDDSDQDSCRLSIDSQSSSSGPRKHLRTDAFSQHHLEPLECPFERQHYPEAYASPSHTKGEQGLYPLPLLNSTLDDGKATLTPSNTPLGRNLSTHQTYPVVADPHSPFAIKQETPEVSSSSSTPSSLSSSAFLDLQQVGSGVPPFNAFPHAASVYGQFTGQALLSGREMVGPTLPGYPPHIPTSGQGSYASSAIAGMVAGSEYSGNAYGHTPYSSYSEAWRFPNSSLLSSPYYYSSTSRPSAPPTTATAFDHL
# [17] = non-specific cell cytotoxicity, dose response, cytotoxicity control for PAX8 inhibitor project, plate reader, dry powder samples (AID 743021); type: functional, cell-based
# Galanin receptor type 3 = target: T4, Galanin receptor type 3 (Homo sapiens, UniProt O60755); assay: Fluorescence-based cell-based primary high throughput dose response assay to identify antagonists of the Galanin Receptor 3 (GalR3).; type: functional
# T4 sequence (O60755 whole entry): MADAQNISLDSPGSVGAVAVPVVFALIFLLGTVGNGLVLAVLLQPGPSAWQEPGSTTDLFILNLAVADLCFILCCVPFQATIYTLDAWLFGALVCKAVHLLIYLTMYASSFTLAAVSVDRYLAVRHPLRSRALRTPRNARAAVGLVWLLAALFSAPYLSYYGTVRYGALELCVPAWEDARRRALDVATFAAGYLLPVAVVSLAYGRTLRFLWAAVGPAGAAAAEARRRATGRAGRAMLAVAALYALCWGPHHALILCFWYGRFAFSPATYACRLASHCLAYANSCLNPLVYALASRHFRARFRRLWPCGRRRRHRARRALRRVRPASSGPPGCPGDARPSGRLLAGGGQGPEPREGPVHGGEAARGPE
# cells = type: functional, cell-based; conditions: HEK-CNG
# [18] = target: T5, COUP transcription factor 2 (Homo sapiens, UniProt P24468); assay: Luminescence-based cell-based high throughput dose response assay to identify inhibitors of COUP-TFII (NR2F2).; type: functional;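 note: HEK293 cells transiently cotransfected with COUP-TFII expression vector and reporter; luciferase reporter luminescence driven by COUP-TFII from the pX2-168 reporter plasmid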
# T5 sequence (P24468 whole entry): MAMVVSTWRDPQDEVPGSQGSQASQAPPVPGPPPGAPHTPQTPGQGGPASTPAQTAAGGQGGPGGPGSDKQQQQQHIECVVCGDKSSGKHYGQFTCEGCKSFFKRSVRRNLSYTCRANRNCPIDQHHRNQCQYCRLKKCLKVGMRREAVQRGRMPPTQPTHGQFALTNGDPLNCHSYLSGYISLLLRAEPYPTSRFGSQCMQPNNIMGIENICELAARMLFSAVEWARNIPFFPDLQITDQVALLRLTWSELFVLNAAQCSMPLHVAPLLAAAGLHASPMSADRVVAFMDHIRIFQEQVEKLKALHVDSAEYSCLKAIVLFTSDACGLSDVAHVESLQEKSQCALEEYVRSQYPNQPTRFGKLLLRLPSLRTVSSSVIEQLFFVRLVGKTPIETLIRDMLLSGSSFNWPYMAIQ
# [19] = cytotoxicity in HEK-293T cells, dose response, cytotoxicity control for TCR NF-kB inhibitor project, luminescence, T-cell screen hits (AID 489026); type: functional, cell-based;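 note: cells exposed to compound about 14 hours before the viability readout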
# FAD-linked sulfhydryl oxidase ALR, sequence (P55789 whole entry): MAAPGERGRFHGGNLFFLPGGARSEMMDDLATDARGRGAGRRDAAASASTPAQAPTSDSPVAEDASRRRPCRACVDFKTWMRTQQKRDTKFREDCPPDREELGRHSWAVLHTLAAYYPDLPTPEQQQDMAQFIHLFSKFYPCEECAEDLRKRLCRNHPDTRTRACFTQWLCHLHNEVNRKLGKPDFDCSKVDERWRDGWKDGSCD
compound,measurement,setting,value
Nc1ccc(-c2nc3ccc(N)cc3[nH]2)cc1,AC50,[1],2.55 µM (active)
same,IC50,[2],46.1 µM (inactive)
same,IC50,Aminopeptidase N,49.9 µM (active)
CCOc1ccc(NC(=O)C2CCCN(S(=O)(=O)c3c(C)n[nH]c3C)C2)cc1 (configuration not stated),IC50,[3],> 100 µM (active)
Cc1cc(C)nc(Sc2nc(Cl)nc(N(c3ccccc3)c3ccccc3)n2)n1,EC50,[4],> 260 µM (inactive)
same,EC50,[5],> 91.1 µM (inactive)
same,EC50,[6],> 91.1 µM (inactive)
O=C(C[C@@H]1CC[C@@H]2[C@H](COC[C@@H](O)CN2C(=O)Nc2ccc(Cl)cc2)O1)NC1Cc2ccccc2C1,AC50,HEK293,25.2 µM (active)
same,AC50,[7],25.2 µM (active)
CCCCNc1c(-c2ccc(OC)c(SC3CCCCC3)c2)nc2ccc(C)cn12,AC50,[8],3.68 µM (active)
same,AC50,[9],18.4 µM (active)
same,AC50,[10],45 µM (active)
same,AC50,[11],15.5 µM (active)
same,AC50,[12],22.1 µM (active)
same,AC50,[13],9.94 µM (active)
same,AC50,[14],7.85 µM (active)
same,AC50,[15],2.14 µM (active)
OCC1OC(n2cnc3c(NCc4ccccc4O)ncnc32)C(O)C1O (configuration not stated),IC50,[16],> 24.5 µM (inactive)
same,AC50,Paired box protein Pax-8,0.759 µM (active)
same,AC50,[17],4.79 µM (active)
Cc1oc(-c2ccc(Cl)cc2)nc1C[S+]([O-])CC(=O)NCCCN1CCN(Cc2ccccc2)CC1 (configuration not stated),IC50,Galanin receptor type 3,2.03 µM (active)
same,AC50,[8],2.52 µM (active)
same,EC50,cells,> 29.9 µM (inactive)
same,AC50,[10],1.69 µM (active)
same,IC50,[18],4.34 µM (active)
same,IC50,[19],> 80 µM (inactive)
same,AC50,[15],4.29 µM (active)
